# According to PMC6823370, “A novel nucleoside rescue metabolic pathway may be responsible for therapeutic effect of orally administered cordycepin” (Scientific Reports, 2019):
# Where two headings read alike, the source gives them in different places.
# How the values were obtained:
# Caco-2 cells = test: Caco-2 permeability; type: in vitro ADME; conditions: cells treated with cordycepin in the absence of pentostatin
# Procedure: (§1) Caco-2 permeability assays were conducted following previously reported methods with 21-day maintenance on the Corning 24-well Transwell® (Fisher Scientific, Loughborough, UK)[48]. […] Both directions of apical-to-basolateral and basolateral-to-apical were tested. […] The experiments were conducted in triplicates.
# (§2) Samples from Caco-2 permeability, in vitro determination of CordyTP formation and in vivo experiments were subjected to protein precipitation followed by LC-MS/MS analysis. To 50 µL of rat plasma sample, 150 µL of internal standard solution (1.67 µg/mL 2-chloroadenosine in methanol) was added. The samples were then vortex-mixed for 10 s and were centrifuged for 3 min at 17949 g. Supernatant (20 µL) was collected and diluted 10-fold with DDW before injection into the LC-MS/MS for analysis of cordycepin and 3′-deoxyinosine. For analysis of CordyTP, the supernatant was filtered using filter tubes mentioned above and injected without dilution. Tissue samples were homogenised using Bullet Blender Gold (Next Advance, Inc., Troy, NY) in methanol (1:3 w/v) and centrifuged for 3 min at 17949 g. The supernatant was filtered and injected for analysis of CordyTP or diluted 10-fold with DDW for analysis of cordycepin and 3′-deoxyinosine. The LC-MS/MS system was a API4000 QTrap (AB Sciex, Warrington, UK) equipped with HPLC setup of SCL10Avp controller, LC10ADvp pump and SILHTC autosampler (Shimadzu, Milton Keynes, UK). Three different methods were utilised for each compound and multiple reaction monitoring parameters of the MS/MS conditions are shown in Table 1. The HPLC conditions including stationary phases and specific mass spectrometry parameters are shown in Supplementary Information 2. The LC-MS/MS method for cordycepin was fully validated in terms of accuracy, precision, sensitivity, selectivity, linearity and sample storage stability in accordance with the Guidance for Industry, Bioanalytical Method Validation, (2018) published by the US FDA (refer to Supplementary Information 3 for validation procedures and results)[53].
# Caco-2 permeability = type: in vitro ADME; conditions: human, Caco-2; read-out: Papp of 3′-deoxyinosine, A to B
# Procedure: as §1, §2
# RAW264.7 cells = test: Repression of inflammatory gene expression in LPS-stimulated RAW264.7 cells (qPCR); type: cell-based, mouse; conditions: for effect of pre-treatment on the inhibitory effect of cordycepin on inflammatory gene expression: LPS
# Procedure: RAW 264.7 mouse macrophage cells were cultured in DMEM supplemented with 10% FBS. Prior to experiments, cells were washed with PBS and cells were maintained in DMEM with 0.5% FBS or 10% FBS for 24 h. LPS was added at 1 µg/mL, 1 h before compound treatment, when needed. When the cells were analysed for concentration levels of cordycepin, 3′-deoxyinosine and CordyTP, the cells were washed twice with PBS. The cells were then treated with methanol and mixed vigorously before the mixture was harvested. The mixture was filtered using filter tubes mentioned above and the filtrate was analysed by liquid chromatography coupled with tandem mass spectrometry (LC-MS/MS). For determination of relative mRNA levels, RNA was isolated from the lysates using an RNA isolation kit, following manufacturer’s protocol (Promega, Madison, WI, cat no. Z6012). RNA was reverse transcribed to cDNA using SuperScript™ III reverse transcriptase (Invitrogen, Carlsbad, CA). Quantitative polymerase chain reaction (qPCR), was performed with Qiagen Rotor-Gene Q qPCR machine (Qiagen, Hilden, Germany) using Promega SYBR Green GoTaq® qPCR master mix (Promega).
# Figure 3 Repression effect on inflammatory gene expression. (a) NBTI or ITu treatment prior to cordycepin treatment suppresses effect of cordycepin. RAW264.7 cells were treated with 10 µM NBTI, 100 nM ITu or DMSO (Ctrl, control) 15 min prior to cordycepin treatment. The cells were stimulated with LPS 1 h after cordycepin treatment (mean ± SD, n = 3). **p < 0.01; ***p < 0.001 compared to DMSO treatment (labelled as Ctrl). (b) 3′-deoxyinosine exerts same repression effect as cordycepin, although to a lesser degree. RAW264.7 cells were treated with 20 µM cordycepin, 20 µM 3′-deoxyinosine (3DI) or DMSO (Ctrl, control) for 1 h prior to LPS stimulation (mean ± SD, n = 3). **p < 0.01; ***p < 0.001 compared to without compound treatment (labelled as LPS).
# [1] = In vivo pharmacokinetics in rats after intravenous or oral cordycepin; set-up: species or system Sprague Dawley rats; conditions: male, Sprague Dawley; for C0: in vivo, read-out: C0 of 3′-deoxyinosine; for Vd: plasma, rat, read-out: Vss of 3′-deoxyinosine
# Procedure: Protocols for the animal experiments in this study were reviewed and approved by the University of Nottingham Ethical Review Committee in accordance with the Animals [Scientific Procedures] Act 1986. Four male Sprague Dawley rats (Charles River Laboratories, UK) of 300–350 g body weight were used. The animals were housed in the Bio Support Unit, University of Nottingham at controlled temperature, 12 h light/dark cycle and free access to food and water. The animals were allowed to acclimatise for at least six days prior to any procedures.
# Prior to pharmacokinetic studies, jugular vein cannulation surgery was performed under general anaesthesia (<3% isoflurane inhalation) for blood sampling or intravenous drug administration. Following two nights of recovery from surgery, the animals were intravenously or orally administered with the PBS-based formulation (5.5 mg/mL cordycepin) developed in a previously reported study. The dose was 8 or 20 mg/kg for intravenous administration and 8 or 80 mg/kg for oral administration. […] When whole blood was analysed, an aliquot was withdrawn immediately after mixing with the pretreated pentostatin. Otherwise, the mixture was centrifuged (3000 g, 10 min) to obtain plasma and samples were stored within the storage conditions tested prior to analysis.
# as §2
# Data are presented as mean ± standard deviation (SD). A two-tailed unpaired t-test was applied for assessment of statistical significance of differences between two groups. For three or more groups, the statistical significance was assessed by application of a one-way ANOVA followed by Tukey’s multiple comparisons test. A p-value lower than 0.05 was deemed statistically significant. Statistical analyses were conducted using GraphPad Prism version 7.01 (GraphPad Software, Inc., La Jolla, CA, USA). Pharmacokinetic parameters were obtained by non-compartmental analysis using Phoenix WinNonlin 6.3 software (Pharsight, Mountain View, CA, USA).
# For calculation of pharmacokinetic parameters, the plasma concentration-time curve was plotted in a semi-log scale. From the plot, the elimination rate constant (ke) was calculated. Elimination half-life (t1/2) wasthen calculated using the following equation: […]
smiles,measurement,setting,value
OC[C@@H]1C[C@@H](O)[C@H](n2cnc3c(O)ncnc32)O1 [3′-deoxyinosine],permeation of 3′-deoxyinosine,Caco-2 cells,detected
same,"Papp A→B at 120 min, 200 µM",Caco-2 permeability,~0.2 ×10⁻⁶ cm/s
same,effect on expression of inflammatory genes,"RAW264.7 cells; 20 µM, 1 h prior to LPS stimulation",suppressed expression of inflammatory genes
same,C0,"[1]; rat plasma, intravenous cordycepin 8 mg/kg",5730 ± 1630 ng/mL
same,C0,"[1]; rat plasma, intravenous cordycepin 20 mg/kg",16300 ± 3870 ng/mL
same,Vd,[1]; intravenous cordycepin 8 mg/kg,2.8 ± 0.3 L/kg
same,Vd,[1]; intravenous cordycepin 20 mg/kg,3 ± 0.7 L/kg
same,Cmax,"[1]; rat plasma, oral cordycepin 8 mg/kg, read-out: Cmax of 3′-deoxyinosine",202 ± 98 ng/mL
"Nc1ncnc2c1c(I)cn2[C@@H]1O[C@H](CO)[C@@H](O)[C@H]1O [ITu, 5-iodotubericidin, reference compound]",effect of pre-treatment on the inhibitory effect of cordycepin on inflammatory gene expression,RAW264.7 cells; 100 nM ITu 15 min prior to cordycepin,inhibit the inhibitory effect of cordycepin
"O=[N+]([O-])c1ccc(CSc2ncnc3c2ncn3[C@@H]2O[C@H](CO)[C@@H](O)[C@H]2O)cc1 [NBTI, S-(4-nitrobenzyl)-6-thioinosine, reference compound]",effect of pre-treatment on the inhibitory effect of cordycepin on inflammatory gene expression,RAW264.7 cells; 10 µM NBTI 15 min prior to cordycepin,inhibit the inhibitory effect of cordycepin
